Data taken from patent US20100028416A1, “DRUG CARRIERS” (Nitto Denko Corporation, priority 2008, published 2010).

Tested on: HSC-T6 cells
Conditions: 96-well plate, excitation 560 nm, emission 590 nm, FIGS. 8-9, comparison with non-retinoid composition
Description: HSC-T6 cells, which express a vitamin A binding protein receptor, were seeded one day prior to experiment in a 96-well plate (100 μL culture medium per well). […] The solutions were diluted with culture medium and incubated for 15 minutes at room temperature. 15 μL was added to the cells. After incubating the cells in solution, the culture medium was removed. Cells were washed once with DPBS and fresh culture medium was added (100 μL culture medium per well). Absorbance (excitation and emission wavelengths were 560 nm and 590 nm, respectively) was read by a BioTek FLx800 96-well plate fluorescence reader and recorded.

Substance: Texas Red-Dextran-Retinoid
- cell uptake (absorbance; greater absorbance indicates greater cell uptake): greater cellular uptake than the oleic acid composition
